Entries after “also recorded” stand apart in the source; their conditions may differ. Like-named read-outs stand apart in the source and are kept apart here.
Key:
[1] = molecular target: AgifCSP5 (Aphidius gifuensis, UniProt A0A3Q9ELG9); assay: Fluorescence competitive binding assay with 1-NPN probe, wild-type AgifCSP5; conditions: for Binding affinity in words: wild-type AgifCSP5
Source text: (§1) The candidate VOCs were mainly derived from various organic volatiles in wheat field habitats, referring to the compounds related to wheat plants and wheat aphids previously reported in a published paper by Jiang et al. in 2022 and 2023 [11, 12], including four groups of ligands: (1) aphid alarm pheromone components; (2) aphid sex pheromone; (3) green leaf volatiles of wheat; and (4) aphid-induced plant volatiles. […] The classes, CAS numbers, and purities of the chemicals used in these assays are listed in Appendix B. A Lengguang 970CRT spectrofluorimeter (Shanghai Jingmi, Shanghai, China) equipped with a 1 cm light path fluorimeter quartz cuvette was used to record the fluorescence intensity at room temperature with the following parameters: the excitation wavelength was set at 337 nm, the emission light wavelength was recorded at 350–500 nm, the high-speed scan mode was used, and the slit width was 10 nm. To determine the binding affinity of 1-NPN for AgifCSP5 proteins, a 2 µM protein solution diluted with 50 mM Tris-HCl at pH 7.4 was titrated with aliquots of the 1 mM 1-NPN stock solution to final concentrations ranging from 2–40 μM. Ligands bound to AgifCSP5 have a protein:ligand ratio of 1:1. Three independent repeats were carried out for all measurements. The binding affinity of AgifCSP5 for all ligands was calculated by the formula Ki = [IC50]/(1 + [1 − NPN]/K1-NPN), where the IC50 is defined as the concentration of a competitor that caused a 50% reduction in fluorescence intensity, K1-NPN is the dissociation constant (Kd) of the AgifCSP5/1-NPN complex, and [1-NPN] is the free concentration of 1-NPN.

[2] = molecular target: R24A mutant of AgifCSP5 (Aphidius gifuensis, UniProt A0A3Q9ELG9, R44A); assay: Fluorescence competitive binding assay, R24A mutant
Source text: as §1
(§2) The mutagenesis primers for the targeted key amino acid residues were designed online (https://crm.vazyme.com/cetool/singlepoint.html (accessed on 24 December 2023)) according to the protocols of the Mut Express II Fast Mutagenesis Kit V2 (Vazyme, China) (Appendix B). Mutations were obtained by using Phanta Max Superfidelity DNA Polymerase with recombinant Plasmid pET-30a/AgifCSP5 plasmid DNA as a template. The plasmids of the mutants were verified by DNA sequencing. The mutated proteins were then expressed and purified, as described above. After protein concentration determination, the binding affinities of the mutants with ligands that previously bound well to the AgifCSP5 protein were verified using fluorescence competitive binding assays.

[3] = molecular target: Y75A mutant of AgifCSP5 (Aphidius gifuensis, UniProt A0A3Q9ELG9, Y95A); assay: Fluorescence competitive binding assay, Y75A mutant
Source text: as §1, §2

[4] = system: A. gifuensis adults; assay: Y-tube olfactometer assay; format: in vivo, Aphidius gifuensis
Description: The behavioral responses of A. gifuensis to volatiles were tested using a Y-tube olfactometer (3.5 cm in diameter, arms 20 cm in length, and a stem 20 cm in length). The assay method was described by Guo et al., and minor improvements were made. The incoming air at a constant flow (300 mL/min) was first filtered using allochroic silica gel and activated carbon and then humidified with ultrapure water. The test compounds were serially diluted with paraffin oil to concentrations of 0.01, 0.1, 1, 10, and 100mg/mL. A total of 10 μL of tested volatile oil preloaded onto 1 cm diameter filter paper was placed in the chamber of the chosen treatment arm of the Y-tube olfactometer, and the same filter paper in another chamber of the chosen control arm was loaded with 10 μL of liquid paraffin. The choice of each adult introduced into the Y-tube stem within 5 min was recorded. The experiments were performed in a dark room at room temperature (25 ± 1 °C), and a light-emitting diode installed at 30 cm was used as the light source. In total, no fewer than 60 adults (at least 30 from each sex) were used in each treatment. After 5 insects were tested, we switched the positions of the volatile arm and the control arm, and after a total of 10 insects were tested, the Y-tube olfactometer was washed with 75% ethanol and air-dried.

[5] = wild-type AgifCSP5, 1-NPN displacement, pH 7.4, read-out: IC50
[6] = wild-type AgifCSP5, 1-NPN displacement, pH 7.4, read-out: Ki

Sequence of AgifCSP5 (A0A3Q9ELG9 entry or part of it): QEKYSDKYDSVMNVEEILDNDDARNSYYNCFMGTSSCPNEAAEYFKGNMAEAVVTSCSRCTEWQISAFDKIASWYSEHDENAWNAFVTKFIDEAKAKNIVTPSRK
Sequence of Y75A mutant of AgifCSP5 (A0A3Q9ELG9 entry or part of it Y95A): as the sequence (A0A3Q9ELG9 entry or part of it) above, with Y75A counted along it
Sequence of R24A mutant of AgifCSP5 (A0A3Q9ELG9 entry or part of it R44A): as the sequence (A0A3Q9ELG9 entry or part of it) above, with R24A counted along it

CCCCCCCCCCCCCCCCCO [1-Heptadecanol]
IC50 [1]: 21.4 ± 1.07 µM | Ki [1]: 15.8 ± 0.79 µM

c1ccc(Nc2cccc3ccccc23)cc1 [1-NPN, N-phenyl-1-naphthylamine, reference compound]
Kd [1]: 3.64 µM | Kd [2]: 14.4 µM | Kd [3]: 3.13 µM

CC(=O)CCC=C(C)C [6-Methyl-5-hepten-2-one]
IC50 [1]: 24.5 ± 1.43 µM | Ki [1]: 18.2 ± 1.06 µM

CC1=CC[C@@H]2C[C@H]1C2(C)C [(1R)-(+)-α-Pinene]
IC50 [1]: 22.5 ± 2.42 µM | Ki [1]: 16.7 ± 1.79 µM

CC1=CCC(C(C)(C)O)CC1 (stereo not drawn) [(+)-α-Terpineol]
IC50 [1, 5]: 29.4 ± 1.6 µM | Ki [1, 6]: 21.8 ± 1.19 µM

C=CC(=C)CC/C=C(\C)CCC=C(C)C [(E)-β-Farnesene]
Binding affinity in words [1]: weakly binds | IC50 [1, 5]: 25.9 ± 1.16 µM | Ki [1, 6]: 19.2 ± 0.86 µM | Binding affinity in words ([1]; listed as EBF): weak binding affinities

C=C(C)[C@H]1CC=C(C)CC1 [(R)-(+)-Limonene]
IC50 [1, 5]: 25.2 ± 4.06 µM | Ki [1, 6]: 18.7 ± 3.01 µM

C=C(C)[C@@H]1CC=C(C)C(=O)C1 [(R)-(−)-Carvone]
IC50 [1]: 23 ± 0.91 µM | Ki [1]: 17 ± 0.67 µM

C=C(C)[C@@H]1CC=C(C)CC1 [(S)-(−)-Limonene]
IC50 [1, 5]: 28.4 ± 2.84 µM | Ki [1, 6]: 21 ± 2.1 µM

C=C/C(C)=C\CC=C(C)C [(Z)-β-ocimene]
IC50 [1, 5]: 18 ± 2.89 µM | Ki [1, 6]: 13.3 ± 2.14 µM | IC50 ([2]; R24A mutant, read-out: IC50): 18.2 ± 1.97 µM | Ki ([2]; R24A mutant, read-out: Ki): 16.7 ± 2.73 µM | IC50 ([3]; Y75A mutant, read-out: IC50): 30.8 ± 7.87 µM | Ki ([3]; Y75A mutant, read-out: Ki): 21.9 ± 5.59 µM | Behavioral response in words ([4]; 100 mg/mL): significantly repelled; also recorded: repellent effects | Behavioral response in words ([4]; low concentrations): did not show any repelling or attracting activity

COc1cc(C(C)=O)cc(OC)c1O [Acetosyringone]
IC50 [1]: 36.9 ± 6.77 µM | Ki [1]: 27.3 ± 5.01 µM

O=Cc1ccccc1 [Benzaldehyde]
IC50 [1]: 18.2 ± 0.88 µM | Ki [1]: 13.5 ± 0.65 µM | IC50 [2]: 17.3 ± 3.62 µM | Ki [2]: 15.8 ± 3.33 µM | IC50 [3]: > 40 µM | Behavioral response in words ([4]; 100 mg/mL): significantly repelled; also recorded: repellent effects; also recorded: strongly repelled | Behavioral response in words ([4]; low concentrations): did not show any repelling or attracting activity

OCc1ccccc1 [Benzyl alcohol]
IC50 [1]: 22.4 ± 4.58 µM | Ki [1]: 16.6 ± 3.39 µM

CC(=O)OC/C=C(\C)CCC=C(C)C [Geranyl acetate]
IC50 [1]: 27.3 ± 4.87 µM | Ki [1]: 20.2 ± 3.61 µM

CCCCCCCCCCCCCCCCCCCCC [Heneicosane]
IC50 [1]: 22.5 ± 2.42 µM | Ki [1]: 16.7 ± 1.79 µM

CC/C=C\CCO [Leaf alcohol]
IC50 [1, 5]: 27.9 ± 0.8 µM | Ki [1, 6]: 20.6 ± 0.59 µM

C=CC(C)(O)CCC=C(C)C (stereo not shown) [Linalool]
IC50 [1]: 25.5 ± 3.46 µM | Ki [1]: 18.9 ± 2.56 µM

CC/C=C\CC1C(=O)CCC1CC(=O)OC (stereo not shown) [Methyl jasmonate]
IC50 [1]: 20.1 ± 1.92 µM | Ki [1]: 14.9 ± 1.42 µM | IC50 [2]: 8.89 ± 0.95 µM | Ki [2]: 8.16 ± 0.87 µM | Binding affinity of R24A compared with wild type, in words ([2]; R24A mutant): increased the binding affinity; also recorded: increased affinities | IC50 [3]: 29.7 ± 1.06 µM | Ki [3]: 21.1 ± 0.75 µM

COC(=O)c1ccccc1O [Methyl salicylate]
IC50 [1]: 20.6 ± 3.58 µM | Ki [1]: 15.3 ± 2.65 µM

C=CC(=C)CCC=C(C)C [Myrcene]
IC50 [1]: 22.5 ± 2.51 µM | Ki [1]: 16.7 ± 1.86 µM

CC1=COC(=O)C2C(C)CCC12 (stereo not shown) [Nepetalactone]
Binding affinity in words [1]: weakly binds | IC50 [1, 5]: 33.8 ± 6.81 µM | Ki [1, 6]: 25 µM | Binding affinity in words ([1]; listed as nephelactone): weak binding affinities

CCCCCCCCCCCCCCCCCCC [Nonadecane]
IC50 [1]: 38.9 ± 7.44 µM | Ki [1]: 28.8 ± 5.51 µM

C=C1CCC2(C(C)C)CC12 (stereo not shown) [Sabinene]
IC50 [1]: 16.4 ± 0.94 µM | Ki [1]: 12.1 ± 0.69 µM | IC50 [2]: 22.4 ± 14.6 µM | Ki [2]: 20.6 ± 13.4 µM | IC50 [3]: 26.2 ± 11.6 µM | Ki [3]: 18.6 ± 8.23 µM | Behavioral response in words ([4]; 10 mg/mL): significantly repelled only males | Behavioral response in words ([4]; 100 mg/mL): significantly repelled; also recorded: repellent effects | Behavioral response in words ([4]; low concentrations): did not show any repelling or attracting activity

CCCCCCCCCCCCCC=O [Tetradecanal]
IC50 [1]: 20.6 ± 2.11 µM | Ki [1]: 15.3 ± 1.57 µM | Binding affinity of R24A compared with wild type, in words ([2]; R24A mutant): increased the binding affinity

CCCCCCCCCCCCC [Tridecane]
IC50 [1]: > 40 µM

CCC/C=C\CO [cis-2-Hexen-1-ol]
IC50 [1]: 34.5 ± 2.09 µM | Ki [1]: 25.6 ± 1.55 µM

CC/C=C\CCO [cis-3-Hexen-1-ol]
IC50 [1]: 23.4 ± 5.54 µM | Ki [1]: 17.3 ± 4.1 µM

CC/C=C\CC=O [cis-3-Hexenal]
IC50 [1]: 29.8 ± 1.55 µM | Ki [1]: 22 ± 1.15 µM

CC/C=C\CCOC(C)=O [cis-3-Hexenyl acetate]
IC50 [1]: 24.5 ± 0.49 µM | Ki [1]: 18.2 ± 0.36 µM

CCCC/C=C\CCO [cis-3-Octen-1-ol]
IC50 [1]: 17 ± 1.08 µM | Ki [1]: 12.6 ± 0.8 µM | IC50 [2]: 18.9 ± 9.83 µM | Ki [2]: 17.4 ± 9.03 µM | IC50 [3]: 22.9 ± 6.68 µM | Ki [3]: 16.3 ± 4.75 µM | Behavioral response in words ([4]; 10 mg/mL): significantly repelled only males | Behavioral response in words ([4]; 100 mg/mL): significantly repelled; also recorded: repellent effects | Behavioral response in words ([4]; low concentrations): did not show any repelling or attracting activity

CCC/C=C/C=O [trans-2-Hexen-1-al]
IC50 [1]: 18.1 ± 1.18 µM | Ki [1]: 13.4 ± 0.87 µM | IC50 [2]: 15 ± 8.09 µM | Ki [2]: 13.8 ± 7.43 µM | IC50 [3]: 14.6 ± 5.42 µM | Ki [3]: 10.4 ± 3.85 µM | Behavioral response in words ([4]; 10 mg/mL): obviously repelled | Behavioral response in words ([4]; 100 mg/mL): significantly repelled; also recorded: repellent effects | Behavioral response in words ([4]; 100 mg/mL, listed as trans-2-hexenal): strongly repelled | Behavioral response in words ([4]; low concentrations): did not show any repelling or attracting activity

CCCCCC/C=C/C=O [trans-2-Nonenal]
IC50 [1]: 16.6 ± 1.78 µM | Ki [1]: 12.3 ± 1.31 µM | IC50 [2]: 25.9 ± 16.4 µM | Ki [2]: 23.7 ± 15 µM | IC50 [3]: > 40 µM | Behavioral response in words ([4]; 10 mg/mL): significantly attracted only female adults; also recorded: attractive | Behavioral response in words ([4]; 100 mg/mL): significantly repelled

Source: article PMC11204085, “Molecular Characterization of Chemosensory Protein (CSP) Genes and the Involvement of AgifCSP5 in the Perception of Host Location in the Aphid Parasitoid Aphidius gifuensis” (International Journal of Molecular Sciences, 2024)
